Experimental data: article PMC3914206

Experiments:
Assay type in all cases: binding
Design in all cases: KINOMEscan: ABL1(F317L)-phosphorylated / KINOMEscan: ABL1(H396P)-nonphosphorylated / KINOMEscan: ABL1(H396P)-phosphorylated / KINOMEscan: ABL1(M351T)-phosphorylated / KINOMEscan: ABL1(T315I)-phosphorylated / KINOMEscan: ABL1-nonphosphorylated / KINOMEscan: ABL1-phosphorylated / KINOMEscan: ACVR2A / KINOMEscan: ACVR2B / KINOMEscan: ADCK3 / KINOMEscan: ADCK4 / KINOMEscan: AKT1 / KINOMEscan: AKT3 / KINOMEscan: ALK / KINOMEscan: ARK5 / KINOMEscan: AURKA / KINOMEscan: AURKC / KINOMEscan: BIKE / KINOMEscan: BMPR1A / KINOMEscan: BMPR1B / KINOMEscan: BMX / KINOMEscan: BRK / KINOMEscan: BRSK1 / KINOMEscan: BRSK2 / KINOMEscan: CAMK1 / KINOMEscan: CAMK1D / KINOMEscan: CAMK1G / KINOMEscan: CAMK2A / KINOMEscan: CAMK2B / KINOMEscan: AAK1 / KINOMEscan: CAMK2D / KINOMEscan: CAMK2G / KINOMEscan: ABL1(F317I)-nonphosphorylated / KINOMEscan: ABL1(F317I)-phosphorylated / KINOMEscan: ABL1(F317L)-nonphosphorylated: unit: % Ctrl
Conditions in all cases: Compound Concentration 10 µM
panel of 442 kinases [1] = biological target: T1, panel of 442 kinases (Homo sapiens, UniProt Q12851)
T1 construct: purchased KINOMEscan
T1 sequence (Q12851 1-820): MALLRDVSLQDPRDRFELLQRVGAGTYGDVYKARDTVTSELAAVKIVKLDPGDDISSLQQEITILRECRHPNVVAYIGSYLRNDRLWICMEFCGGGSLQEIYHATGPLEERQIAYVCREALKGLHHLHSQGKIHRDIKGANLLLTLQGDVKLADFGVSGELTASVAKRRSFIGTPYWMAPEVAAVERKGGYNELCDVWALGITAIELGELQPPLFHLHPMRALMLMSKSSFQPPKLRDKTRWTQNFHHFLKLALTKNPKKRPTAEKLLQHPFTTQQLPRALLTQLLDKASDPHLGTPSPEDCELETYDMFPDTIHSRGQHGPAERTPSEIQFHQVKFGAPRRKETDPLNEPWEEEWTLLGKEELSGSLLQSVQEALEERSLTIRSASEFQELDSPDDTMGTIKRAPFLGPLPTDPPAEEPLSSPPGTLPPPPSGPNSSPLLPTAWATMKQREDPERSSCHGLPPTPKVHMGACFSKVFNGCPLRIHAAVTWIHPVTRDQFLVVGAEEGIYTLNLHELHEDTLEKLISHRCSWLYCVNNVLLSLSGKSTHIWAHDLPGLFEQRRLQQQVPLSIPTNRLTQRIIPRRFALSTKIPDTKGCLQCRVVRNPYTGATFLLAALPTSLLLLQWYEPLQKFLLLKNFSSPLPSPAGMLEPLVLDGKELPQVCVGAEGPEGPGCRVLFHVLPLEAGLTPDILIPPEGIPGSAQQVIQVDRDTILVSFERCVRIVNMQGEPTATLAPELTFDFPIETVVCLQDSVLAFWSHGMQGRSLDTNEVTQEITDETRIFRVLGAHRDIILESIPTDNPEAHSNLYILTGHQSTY
Excerpt: (§1) We assessed the selectivity of members of this scaffold using the KINOMEscan methodology across a near comprehensive panel of 442 kinases [[18,27]].

panel of 442 kinases [2] = biological target: T2, panel of 442 kinases (Homo sapiens, UniProt P27361)
T2 construct: purchased KINOMEscan
T2 sequence (P27361 whole entry): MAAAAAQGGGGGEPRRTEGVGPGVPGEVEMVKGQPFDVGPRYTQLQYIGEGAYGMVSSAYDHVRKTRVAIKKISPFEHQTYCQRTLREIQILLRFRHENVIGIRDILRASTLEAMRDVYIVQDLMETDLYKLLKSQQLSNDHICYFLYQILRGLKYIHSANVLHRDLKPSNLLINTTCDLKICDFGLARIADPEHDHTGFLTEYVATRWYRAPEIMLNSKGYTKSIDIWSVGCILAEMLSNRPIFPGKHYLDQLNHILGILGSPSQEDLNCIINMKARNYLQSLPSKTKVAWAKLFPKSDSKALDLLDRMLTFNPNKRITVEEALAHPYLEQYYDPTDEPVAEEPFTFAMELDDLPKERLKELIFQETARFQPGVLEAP
Excerpt: as §1

panel of 442 kinases [3] = biological target: T3, panel of 442 kinases (Homo sapiens, UniProt Q14012)
T3 construct: purchased KINOMEscan
T3 sequence (Q14012 whole entry): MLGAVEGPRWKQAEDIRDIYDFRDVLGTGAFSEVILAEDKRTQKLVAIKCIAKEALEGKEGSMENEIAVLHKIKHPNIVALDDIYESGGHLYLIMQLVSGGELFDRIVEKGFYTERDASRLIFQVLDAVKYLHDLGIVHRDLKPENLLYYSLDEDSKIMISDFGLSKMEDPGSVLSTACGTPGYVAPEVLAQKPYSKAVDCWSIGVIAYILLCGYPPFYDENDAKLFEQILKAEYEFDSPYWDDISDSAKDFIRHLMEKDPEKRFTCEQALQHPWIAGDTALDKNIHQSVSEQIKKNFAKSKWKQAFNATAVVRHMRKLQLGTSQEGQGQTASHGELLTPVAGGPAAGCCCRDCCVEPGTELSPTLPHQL
Excerpt: as §1

Row | Structure (SMILES) | KINOMEscan: MAP4K2 (panel of 442 kinases [1]) | KINOMEscan: ERK1 (panel of 442 kinases [2]) | KINOMEscan: CAMK1 (panel of 442 kinases [3])
1 | COc1cc(C(=O)N2CCC(N3CCN(C)CC3)CC2)ccc1Nc1ncc2c(n1)N(C1CCCC1)c1ccccc1C(=O)N2C [Compound 25, 11-cyclopentyl-2-((2-methoxy-4-(4-(4-methylpiperazin-1-yl)piperidine-1-carbonyl)phenyl)amino)-5-methyl-5H-benzo[e]pyrimido[5,4-b][1,4]diazepin-6(11H)-one] | 100 | 96 | 48
2 | CCOc1cc(C(=O)N2CCC(N3CCN(C)CC3)CC2)ccc1Nc1ncc2c(n1)N(C1CCCC1)c1ccccc1C(=O)N2C [Compound 26] | 92 | 100 | 37
3 | COc1cc(C(=O)N2CCC(N3CCN(C)CC3)CC2)ccc1Nc1ncc2c(n1)N1CCc3cccc(c31)C(=O)N2C [Compound 24] |  |  | 68
4 | COc1cc(C(=O)N2CCC(N3CCN(C)CC3)CC2)ccc1Nc1ncc2c(n1)N(C)c1ccccc1C(=O)N2C [15 (LRRK2-IN-1)] | 100 | 100 | 55
